Reference: the NIST ThermoML archive (doi:10.1016/j.jct.2017.08.004)
± gives the expanded uncertainty stated by the source.

Assay: molar heat capacity at constant pressure
Conditions: 101.33 kPa, Crystal

OC[C@@H](O)[C@@H](O)CO [meso-1,2,3,4-butanetetrol]
Conditions | molar heat capacity at constant pressure [J/K/mol]
1 K, relaxation calorimetry | 0.00103 ± 0.00012
1.924 K, relaxation calorimetry | 0.005451 ± 0.00046
2 K, relaxation calorimetry | 0.006099 ± 0.00042
2.124 K, relaxation calorimetry | 0.007391 ± 0.0006
2.347 K, relaxation calorimetry | 0.009418 ± 0.00072
2.604 K, relaxation calorimetry | 0.01294 ± 0.00097
2.892 K, relaxation calorimetry | 0.01782 ± 0.0013
3 K, relaxation calorimetry | 0.01982 ± 0.0013
3.203 K, relaxation calorimetry | 0.02425 ± 0.0018
3.549 K, relaxation calorimetry | 0.03325 ± 0.0024
3.937 K, relaxation calorimetry | 0.04561 ± 0.0033
4 K, relaxation calorimetry | 0.04786 ± 0.003
4.364 K, relaxation calorimetry | 0.06293 ± 0.0045
4.842 K, relaxation calorimetry | 0.08785 ± 0.0062
5 K, relaxation calorimetry | 0.09724 ± 0.0061
5.372 K, relaxation calorimetry | 0.1225 ± 0.0087
5.959 K, relaxation calorimetry | 0.1717 ± 0.012
6 K, relaxation calorimetry | 0.1763 ± 0.011
6.613 K, relaxation calorimetry | 0.2418 ± 0.017
7 K, relaxation calorimetry | 0.2944 ± 0.018
7.34 K, relaxation calorimetry | 0.3445 ± 0.024
8 K, relaxation calorimetry | 0.4614 ± 0.029
8.147 K, relaxation calorimetry | 0.493 ± 0.035
9 K, relaxation calorimetry | 0.6863 ± 0.042
9.042 K, relaxation calorimetry | 0.6996 ± 0.049
10 K, relaxation calorimetry | 0.9714 ± 0.06
10.11 K, relaxation calorimetry | 0.9995 ± 0.07
11.21 K, relaxation calorimetry | 1.394 ± 0.097
12.45 K, relaxation calorimetry | 1.929 ± 0.13
13.81 K, relaxation calorimetry | 2.607 ± 0.18
15 K, relaxation calorimetry | 3.273 ± 0.2
15.35 K, relaxation calorimetry | 3.484 ± 0.24
17.04 K, relaxation calorimetry | 4.582 ± 0.32
18.93 K, relaxation calorimetry | 5.892 ± 0.41
20 K, relaxation calorimetry | 6.679 ± 0.41
21.01 K, relaxation calorimetry | 7.451 ± 0.3
23.34 K, relaxation calorimetry | 9.268 ± 0.38
25 K, relaxation calorimetry | 10.62 ± 0.65
25.88 K, relaxation calorimetry | 11.3 ± 0.46
28.73 K, relaxation calorimetry | 13.63 ± 0.56
30 K, relaxation calorimetry | 14.7 ± 0.9
31.9 K, relaxation calorimetry | 16.25 ± 0.66
35 K, relaxation calorimetry | 18.79 ± 1.2
35.42 K, relaxation calorimetry | 19.19 ± 0.78
39.33 K, relaxation calorimetry | 22.36 ± 0.91
40 K, relaxation calorimetry | 22.84 ± 1.4
43.67 K, relaxation calorimetry | 25.77 ± 1
45 K, relaxation calorimetry | 26.81 ± 1.6
48.45 K, relaxation calorimetry | 29.39 ± 1.2
50 K, relaxation calorimetry | 30.63 ± 1.9
53.77 K, relaxation calorimetry | 33.35 ± 1.4
55 K, relaxation calorimetry | 34.26 ± 2.1
59.7 K, relaxation calorimetry | 37.69 ± 1.5
60 K, relaxation calorimetry | 37.94 ± 2.3
65 K, relaxation calorimetry | 41.5 ± 2.5
66.26 K, relaxation calorimetry | 42.34 ± 1.7
70 K, relaxation calorimetry | 44.95 ± 2.8
73.58 K, relaxation calorimetry | 47.19 ± 1.9
75 K, relaxation calorimetry | 48.3 ± 3
80 K, relaxation calorimetry | 51.54 ± 3.2
81.69 K, relaxation calorimetry | 52.8 ± 2.1
85 K, relaxation calorimetry | 54.68 ± 3.3
90 K, relaxation calorimetry | 57.74 ± 3.5
90.67 K, relaxation calorimetry | 58.3 ± 2.4
95 K, relaxation calorimetry | 60.72 ± 3.7
100 K, relaxation calorimetry | 63.64 ± 3.9
100.62 K, relaxation calorimetry | 63.74 ± 2.6
110 K, relaxation calorimetry | 69.28 ± 4.2
110.75 K, relaxation calorimetry | 69.63 ± 2.8
120 K, relaxation calorimetry | 74.73 ± 4.6
120.81 K, relaxation calorimetry | 75.51 ± 3.1
130 K, relaxation calorimetry | 80.03 ± 4.9
130.85 K, relaxation calorimetry | 80.63 ± 3.3
140 K, relaxation calorimetry | 85.23 ± 5.2
140.98 K, relaxation calorimetry | 85.76 ± 3.5
150 K, relaxation calorimetry | 90.34 ± 5.5
151.1 K, relaxation calorimetry | 90.49 ± 3.7
160 K, relaxation calorimetry | 95.4 ± 5.8
161.19 K, relaxation calorimetry | 95.3 ± 3.9
170 K, relaxation calorimetry | 100.41 ± 6.2
171.29 K, relaxation calorimetry | 100.67 ± 4.1
180 K, relaxation calorimetry | 105.4 ± 6.5
181.37 K, relaxation calorimetry | 106.96 ± 4.3
188.15 K, Small sample (50 mg) DSC | 104.81 ± 13
189.15 K, Small sample (50 mg) DSC | 105.65 ± 13
190 K, relaxation calorimetry | 110.37 ± 6.8
190.15 K, Small sample (50 mg) DSC | 106.41 ± 13
191.15 K, Small sample (50 mg) DSC | 107.06 ± 13
191.45 K, relaxation calorimetry | 111.84 ± 4.5
192.15 K, Small sample (50 mg) DSC | 107.53 ± 13
193.15 K, Small sample (50 mg) DSC | 107.94 ± 13
194.15 K, Small sample (50 mg) DSC | 108.84 ± 13
195.15 K, Small sample (50 mg) DSC | 109.73 ± 13
196.15 K, Small sample (50 mg) DSC | 110.56 ± 13
197.15 K, Small sample (50 mg) DSC | 111.25 ± 13
198.15 K, Small sample (50 mg) DSC | 111.77 ± 14
199.15 K, Small sample (50 mg) DSC | 112.42 ± 14
200 K, relaxation calorimetry | 115.34 ± 7.1
200.15 K, Small sample (50 mg) DSC | 113.07 ± 14
201.15 K, Small sample (50 mg) DSC | 113.73 ± 14
201.6 K, relaxation calorimetry | 116.2 ± 4.7
202.15 K, Small sample (50 mg) DSC | 114.29 ± 14
203.15 K, Small sample (50 mg) DSC | 114.78 ± 14
204.15 K, Small sample (50 mg) DSC | 115.4 ± 14
205.15 K, Small sample (50 mg) DSC | 115.95 ± 14
206.15 K, Small sample (50 mg) DSC | 116.45 ± 14
207.15 K, Small sample (50 mg) DSC | 116.98 ± 14
208.15 K, Small sample (50 mg) DSC | 117.43 ± 14
209.15 K, Small sample (50 mg) DSC | 117.85 ± 14
210 K, relaxation calorimetry | 120.31 ± 7.4
210.15 K, Small sample (50 mg) DSC | 118.46 ± 14
211.15 K, Small sample (50 mg) DSC | 119.05 ± 14
211.7 K, relaxation calorimetry | 120.82 ± 4.9
212.15 K, Small sample (50 mg) DSC | 119.45 ± 14
213.15 K, Small sample (50 mg) DSC | 120.03 ± 14
214.15 K, Small sample (50 mg) DSC | 120.6 ± 15
215.15 K, Small sample (50 mg) DSC | 120.96 ± 15
216.15 K, Small sample (50 mg) DSC | 121.61 ± 15
217.15 K, Small sample (50 mg) DSC | 122.09 ± 15
218.15 K, Small sample (50 mg) DSC | 122.56 ± 15
219.15 K, Small sample (50 mg) DSC | 123.25 ± 15
220 K, relaxation calorimetry | 125.28 ± 7.7
220.15 K, Small sample (50 mg) DSC | 123.79 ± 15
221.15 K, Small sample (50 mg) DSC | 124.32 ± 15
221.79 K, relaxation calorimetry | 126.14 ± 5.1
222.15 K, Small sample (50 mg) DSC | 124.76 ± 15
223.15 K, Small sample (50 mg) DSC | 125.31 ± 15
224.15 K, Small sample (50 mg) DSC | 125.9 ± 15
225.15 K, Small sample (50 mg) DSC | 126.32 ± 15
226.15 K, Small sample (50 mg) DSC | 126.8 ± 15
227.15 K, Small sample (50 mg) DSC | 127.31 ± 15
228.15 K, Small sample (50 mg) DSC | 127.86 ± 15
229.15 K, Small sample (50 mg) DSC | 128.26 ± 16
230 K, relaxation calorimetry | 130.27 ± 8
230.15 K, Small sample (50 mg) DSC | 128.74 ± 16
231.15 K, Small sample (50 mg) DSC | 129.25 ± 16
231.89 K, relaxation calorimetry | 131.18 ± 5.3
232.15 K, Small sample (50 mg) DSC | 129.79 ± 16
233.15 K, Small sample (50 mg) DSC | 130.29 ± 16
234.15 K, Small sample (50 mg) DSC | 130.84 ± 16
235.15 K, Small sample (50 mg) DSC | 131.47 ± 16
236.15 K, Small sample (50 mg) DSC | 132.03 ± 16
237.15 K, Small sample (50 mg) DSC | 132.65 ± 16
238.15 K, Small sample (50 mg) DSC | 133.18 ± 16
239.15 K, Small sample (50 mg) DSC | 133.62 ± 16
240 K, relaxation calorimetry | 135.27 ± 8.3
240.15 K, Small sample (50 mg) DSC | 134.1 ± 16
241.15 K, Small sample (50 mg) DSC | 134.58 ± 16
241.92 K, relaxation calorimetry | 136.06 ± 5.5
242.15 K, Small sample (50 mg) DSC | 135 ± 16
243.15 K, Small sample (50 mg) DSC | 135.48 ± 16
244.15 K, Small sample (50 mg) DSC | 135.91 ± 16
245.15 K, Small sample (50 mg) DSC | 136.33 ± 16
246.15 K, Small sample (50 mg) DSC | 136.8 ± 17
247.15 K, Small sample (50 mg) DSC | 137.31 ± 17
248.15 K, Small sample (50 mg) DSC | 137.82 ± 17
249.15 K, Small sample (50 mg) DSC | 138.21 ± 17
250 K, relaxation calorimetry | 140.29 ± 8.6
250.15 K, Small sample (50 mg) DSC | 138.96 ± 17
251.15 K, Small sample (50 mg) DSC | 139.41 ± 17
251.99 K, relaxation calorimetry | 141.26 ± 5.7
252.15 K, Small sample (50 mg) DSC | 139.85 ± 17
253.15 K, Small sample (50 mg) DSC | 140.35 ± 17
254.15 K, Small sample (50 mg) DSC | 140.97 ± 17
255.15 K, Small sample (50 mg) DSC | 141.49 ± 17
256.15 K, Small sample (50 mg) DSC | 142.02 ± 17
257.15 K, Small sample (50 mg) DSC | 142.62 ± 17
258.15 K, Small sample (50 mg) DSC | 143.2 ± 17
259.15 K, Small sample (50 mg) DSC | 143.78 ± 17
260 K, relaxation calorimetry | 145.33 ± 8.9
260.15 K, Small sample (50 mg) DSC | 144.21 ± 17
261.15 K, Small sample (50 mg) DSC | 144.74 ± 17
262.11 K, relaxation calorimetry | 146.2 ± 5.9
262.15 K, Small sample (50 mg) DSC | 145.34 ± 18
263.15 K, Small sample (50 mg) DSC | 145.66 ± 18
